Results as given in US11840686B2, “Modulation of prekallikrein (PKK) expression” (Ionis Pharmaceuticals, Inc., priority 2013, dated 2023).
Strand notation (5' to 3'): a small letter for the sugar, then the base; units joined by * are phosphorothioate-linked, units joined directly phosphodiester-linked; [ ] holds rarer units or linkages, { } end groups; capitals alone tell only the bases. e = 2'-O-(2-methoxyethyl) (MOE); [5mC] = 5-methylcytosine; d = 2'-deoxy (DNA)

How the values were obtained:
Type in all cases: in vivo, mouse
[1] = system: basal and captopril-induced vascular permeability; test: Evans Blue basal and captopril-induced vascular permeability in mice (Example 12); conditions: for OD600 nm of Evans Blue dye, Colon / OD600 nm of Evans Blue dye, Ears / OD600 nm of Evans Blue dye, Feet / OD600 nm of Evans Blue dye, Intestine: ISIS 482584 40 mg/kg sc twice a week 4 weeks, HOE-140 30 μg ip
Method: Basal permeability is the level of vascular permeability occurring in the tissues of naïve, untreated mice. The effect of ISIS 482584 in the prevention of vascular permeability, either basal or captopril-induced, was evaluated.
Group 1 consisted of 8 mice and was treated with PBS administered subcutaneously twice a week for 4 weeks. No other treatment was administered to Group 1 which served as a control group to measure the basal levels of vascular permeability.
Group 2 consisted of 8 mice and was treated with PBS administered subcutaneously twice a week for 4 weeks. At the end of the treatment period, the mice were intraperitoneally administered 20 μg of captopril. Group 2 served as the negative control group for captopril-induced vascular permeability.
Group 3 consisted of 8 mice and was treated with PBS administered subcutaneously twice a week for 4 weeks. At the end of the treatment period, the mice were intraperitoneally administered 30 μg of HOE-140. Group 3 served as a positive control for inhibition of basal vascular permeability.
Group 4 consisted of 8 mice and was treated with PBS administered subcutaneously twice a week for 4 weeks. At the end of the treatment period, the mice were intraperitoneally administered 20 μg of captopril. The mice were also intraperitoneally administered 30 μg of HOE-140. Group 4 served as a positive control for inhibition of captopril-induced vascular permeability.
Group 5 consisted of 8 mice and was treated with 40 mg/kg of ISIS 482584 administered subcutaneously twice a week for 4 weeks. Group 5 served as an experimental treatment group for examining the effect of ISIS 482584 on basal vascular permeability.
Group 6 consisted of 8 mice and was treated with 40 mg/kg of ISIS 482584 administered subcutaneously twice a week for 4 weeks. At the end of the treatment period, the mice were intraperitoneally administered 20 μg of captopril. Group 6 served as an experimental treatment group for examining the effect of ISIS 482584 on captopril-induced vascular permeability.
All the groups were then injected with 30 mg/kg of Evans Blue solution. The mice were sacrificed 30 min after the Evans Blue solution administration and colons, feet, ears, and intestines were harvested.
The harvested tissues from the feet, colon, intestine, and ears were placed separately in formamide solution overnight to leach out the Evans Blue dye. The formamide solution containing feet and ear tissue was heated to 55° C. and left overnight.

[2] = system: thrombus formation; test: Stenosis-induced inferior vena cava thrombosis model, thrombi weights (Example 22); conditions: BALB/c mice; for Thrombi weight: 24 hrs after stenosis
Method: Reduced blood flow and endothelial damage are hallmarks of this model, also known as the St. Tomas model.
Four groups of 6-8 BALB/c mice were treated with 5 mg/kg, 10 mg/kg, 20 mg/kg, or 40 mg/kg of ISIS 482584, administered subcutaneously twice a week for 3 weeks (weekly doses of 10 mg/kg, 20 mg/kg, 40 mg/kg, or 80 mg/kg). A control group of 8 BALB/c mice was treated with PBS, administered subcutaneously twice a week for 3 weeks. Two days after the last dose of antisense oligonucleotide or PBS was administered, mice from all groups were anesthetized with 2.5% inhalant isoflurane. The IVC of the mice was exposed via a midline abdominal incision below the left renal vein, and was separated from the abdominal aorta by blunt dissection. A 6-0 silk tie (Ethicon, UK) was placed behind the blood vessel just below the left renal vein and a metal 4-0 suture (Ethicon, UK) was placed longitudinally over the IVC to tie the silk tie on top. The metal suture was then removed. Two neurovascular surgical clips (Braun Medical Inc, PA) were placed at two separate positions below the ligation for 20 seconds each, after which they were removed. The abdominal cavity contents were then replaced and the abdomen was closed. After 24 hrs, the IVC was exposed and checked for thrombi formation. All thrombi formed were collected and fixed in 10% formalin for 24 hrs.
The thrombi were weighed and the results are presented in Table 85, expressed in milligrams.

[3] = system: captopril-induced vascular permeability; test: Dose-dependent effect on captopril-induced vascular permeability, Evans Blue OD600 (Example 13); conditions: for OD600 nm of Evans Blue dye, Colon / OD600 nm of Evans Blue dye, Ears / OD600 nm of Evans Blue dye, Feet / OD600 nm of Evans Blue dye, Intestine: captopril Yes
Method: The effect of varying doses on ISIS 482584 on captopril-induced vascular permeability was evaluated.
Group 1 consisted of 4 mice and was treated with PBS administered subcutaneously twice a week for 3 weeks. No other treatment was administered to Group 1 which served as a control group to measure the basal levels of vascular permeability.
Group 2 consisted of 8 mice and was treated with PBS administered subcutaneously twice a week for 3 weeks. At the end of the treatment period, the mice were intraperitoneally administered 20 μg of captopril. Group 2 served as the control group for captopril-induced vascular permeability.
Group 3 consisted of 4 mice and was treated with PBS administered subcutaneously twice a week for 3 weeks. At the end of the treatment period, the mice were intraperitoneally administered 20 μg of captopril. The mice were also intraperitoneally administered 30 μg of Icatibant (HOE-140). […] served as a positive control for inhibition of captopril-induced vascular permeability.
Groups 4, 5, 6, 7, 8, and 9 consisted of 8 mice each and were treated with 2.5 mg/kg, 5 mg/kg, 10 mg/kg, 20 mg/kg, 40 mg/kg, or 80 mg/kg (corresponding to 5 mg/kg, 10 mg/kg, 20 mg/kg, 40 mg/kg, 80 mg/kg, or 160 mg/kg per week), respectively of ISIS 482584 administered subcutaneously twice a week for 3 weeks. At the end of the treatment period, the mice of all the groups were intraperitoneally administered 20 μg of captopril. Groups 4-9 served as the experimental treatment groups for examining the effect of varying doses of ISIS 482584 on captopril-induced vascular permeability.
All the groups were then injected with 30 mg/kg of Evans Blue solution in the tail vein. The mice were sacrificed 30 min after the Evans Blue solution administration and colons, feet, ears, and intestines were harvested. Blood samples were taken through cardiac puncture.
The harvested tissues were placed in formamide solution overnight to leach out the Evans Blue dye. The formamide solution containing feet and ear tissue was heated to 55° C. and left overnight.

[4] = dose 5 mg/kg, sc twice a week 3 weeks
[5] = dose 10 mg/kg, sc twice a week 3 weeks
[6] = dose 20 mg/kg, sc twice a week 3 weeks
[7] = dose 40 mg/kg, sc twice a week 3 weeks
[8] = dose 80 mg/kg, sc twice a week 3 weeks
[9] = dose 160 mg/kg, sc twice a week 3 weeks

With “ISIS 482584: 5-10-5 MOE gapmer targeting murine PKK, GGCATATTGGTTTTTGGAAT; SEQ ID NO: 2244 (antisense eG*eG*e[5mC]*eA*eT*dA*dT*dT*dG*dG*dT*dT*dT*dT*dT*eG*eG*eA*eA*eT)” the “basal vascular permeability” value ([1]; 40 mg/kg s.c. twice a week for 4 weeks, Group 5 vs. Group 1) was “reduced basal vascular permeability”, the “captopril-induced vascular permeability” value ([1]; 40 mg/kg s.c. twice a week for 4 weeks, Group 6 vs. Group 2) was “reduced captopril-induced vascular permeability in most tissues” and the “OD600 nm of Evans Blue dye, Colon” value ([1]; basal (captopril No)) was 0.19. For the same compound, the “OD600 nm of Evans Blue dye, Ears” value ([1]; basal (captopril No)) was 0.04, the “OD600 nm of Evans Blue dye, Feet” value ([1]; basal (captopril No)) was 0.07 and the “OD600 nm of Evans Blue dye, Intestine” value ([1]; basal (captopril No)) was 0.22. For the same compound, the “OD600 nm of Evans Blue dye, Colon” value ([1]; captopril Yes) was 0.37, the “OD600 nm of Evans Blue dye, Ears” value ([1]; captopril Yes) was 0.00 and the “OD600 nm of Evans Blue dye, Feet” value ([1]; captopril Yes) was 0.05. The “OD600 nm of Evans Blue dye, Intestine” value ([1]; captopril Yes) was 0.22, the Thrombi weight ([2]; 10 mg/kg/wk sc 3 weeks) was 8 mg and the Thrombi weight ([2]; 20 mg/kg/wk sc 3 weeks) was 6 mg. For the same compound, the Thrombi weight ([2]; 40 mg/kg/wk sc 3 weeks) was 5 mg, the Thrombi weight ([2]; 80 mg/kg/wk sc 3 weeks) was 3 mg and the “thrombus weight” value ([2]; increasing doses 5-40 mg/kg s.c. twice a week for 3 weeks) was “corresponding decrease in thrombus weight”. The “OD600 nm of Evans Blue dye, Colon” value [3, 4] was 0.41, the “OD600 nm of Evans Blue dye, Ears” value [3, 4] was 0.05 and the “OD600 nm of Evans Blue dye, Feet” value [3, 4] was 0.10. The “OD600 nm of Evans Blue dye, Intestine” value [3, 4] was 0.17, the “OD600 nm of Evans Blue dye, Colon” value [3, 5] was 0.41 and the “OD600 nm of Evans Blue dye, Ears” value [3, 5] was 0.05. The “OD600 nm of Evans Blue dye, Feet” value [3, 5] was 0.10, the “OD600 nm of Evans Blue dye, Intestine” value [3, 5] was 0.19 and the “OD600 nm of Evans Blue dye, Colon” value [3, 6] was 0.40. The “OD600 nm of Evans Blue dye, Ears” value [3, 6] was 0.07, the “OD600 nm of Evans Blue dye, Feet” value [3, 6] was 0.11 and the “OD600 nm of Evans Blue dye, Intestine” value [3, 6] was 0.20. The “OD600 nm of Evans Blue dye, Colon” value [3, 7] was 0.36, the “OD600 nm of Evans Blue dye, Ears” value [3, 7] was 0.05 and the “OD600 nm of Evans Blue dye, Feet” value [3, 7] was 0.10. For the same compound, the “OD600 nm of Evans Blue dye, Intestine” value [3, 7] was 0.20, the “OD600 nm of Evans Blue dye, Colon” value [3, 8] was 0.21 and the “OD600 nm of Evans Blue dye, Ears” value [3, 8] was 0.03. The “OD600 nm of Evans Blue dye, Feet” value [3, 8] was 0.04, the “OD600 nm of Evans Blue dye, Intestine” value [3, 8] was 0.17 and the “OD600 nm of Evans Blue dye, Colon” value [3, 9] was 0.26. For the same compound, the “OD600 nm of Evans Blue dye, Ears” value [3, 9] was 0.05, the “OD600 nm of Evans Blue dye, Feet” value [3, 9] was 0.10 and the “OD600 nm of Evans Blue dye, Intestine” value [3, 9] was 0.15. For the same compound, the “captopril-induced vascular permeability” value ([3]; higher doses (Groups 4, 5, and 6) vs PBS control group (Group 2)) was “reduced levels of captopril-induced vascular permeability”.

With `NC(N)=NCCC[C@@H](N)C(=O)N[C@@H](CCCN=C(N)N)C(=O)N1CCC[C@H]1C(=O)N1C[C@H](O)C[C@H]1C(=O)NCC(=O)N[C@@H](Cc1cccs1)C(=O)N[C@@H](CO)C(=O)N1Cc2ccccc2C[C@@H]1C(=O)N1[C@H](C(=O)N[C@@H](CCCN=C(N)N)C(=O)O)C[C@@H]2CCCC[C@@H]21` [HOE-140, Icatibant, reference compound] the “OD600 nm of Evans Blue dye, Colon” value ([1]; basal (captopril No)) was 0.18, the “OD600 nm of Evans Blue dye, Ears” value ([1]; basal (captopril No)) was 0.03 and the “OD600 nm of Evans Blue dye, Feet” value ([1]; basal (captopril No)) was 0.06. For the same compound, the “OD600 nm of Evans Blue dye, Intestine” value ([1]; basal (captopril No)) was 0.21, the “OD600 nm of Evans Blue dye, Colon” value ([1]; captopril Yes) was 0.29 and the “OD600 nm of Evans Blue dye, Ears” value ([1]; captopril Yes) was 0.00. For the same compound, the “OD600 nm of Evans Blue dye, Feet” value ([1]; captopril Yes) was 0.03, the “OD600 nm of Evans Blue dye, Intestine” value ([1]; captopril Yes) was 0.14 and the “OD600 nm of Evans Blue dye, Colon” value ([3]; HOE-140 30 μg ip) was 0.15. For the same compound, the “OD600 nm of Evans Blue dye, Ears” value ([3]; HOE-140 30 μg ip) was 0.04, the “OD600 nm of Evans Blue dye, Feet” value ([3]; HOE-140 30 μg ip) was 0.03 and the “OD600 nm of Evans Blue dye, Intestine” value ([3]; HOE-140 30 μg ip) was 0.10.
